From patent US9480751B2, “Albumin binding probes and drug conjugates thereof” (priority 2011, dated 2016)

How the values were obtained:
[1] = Hydrophobic chromatography (analytical HPLC, chromolite RP-18e) as estimate of overall lipophilicity; conditions: chromolite R.P-18e column, mixture of 40 μg each, FIG. 3
Method: Analytical reverse phase-HPLC was performed using a pre-packed Chromolith™ Performance RP-18e column (4.6×100 mm, Merck, Darmstadt, Germany). The column was eluted with a binary gradient of 10-100% solution B over 10 min with a flow rate of 3 ml/min (solution A was 0.1% trifluoroacetic acid in H2O and solution B was 0.1% trifluoroacetic acid in acetonitrile:H2O; 3:1, v/v).
This approach of hydrophobic chromatography yields an estimate of the overall lipophilicity of peptide analogs (Shechter et al., 2010).

[2] = said to have; cited from earlier work
CD1-mice = assay: Blood glucose levels in CD1 mice after a single administration; format: in vivo
Method: (§1) Each point is the arithmetic mean of n=6 mice±SE.
as §1
Blood glucose levels were determined at varying time points following administration of insulin, exendin-4, and their derivatives in blood aliquots taken from the tail vein. Glucose analyzer (Beckman Instruments Fullerton, Calif.) was used. Groups consisted of six mice each. Data are presented as means±SE.

[3] = background statement; cited from earlier work
[4] = single subcutaneous 0.25 nmole/mouse, CD1 mice

Substance	Rt value, hydrophobic chromatography (estimate of overall lipophilicity) [1] [min]	Duration of action [2]	Blood glucose level 48 hrs after administration (last time point) (CD1-mice; intravenous 0.25 nmole/mouse)	t1/2 value of glucose-lowering (CD1-mice; single intravenous 0.25 nmole/mouse, CD1 mice) [h]	Glucose level reached after administration (CD1-mice; [4]) [mg/dL]	Period over which glucose remained at low level (CD1-mice; [4]) [h]	t1/2 value of glucose-lowering (CD1-mice; [4]) [h]	Glucose level reached after administration (CD1-mice; single subcutaneous 0.25 nmole/mouse, CD1 mice, listed as HO3S—(CH2)15—CO-exendin-4)	t1/2 of glucose reduction (CD1-mice; subcutaneous and intravenous administration, stated together) [h]	t1/2 of glucose-lowering effect (CD1-mice; single subcutaneous 0.69 nmole/mouse, CD1 mice) [h]	t1/2 in plasma [3] [min]
N^εB29-tetradecanoyl des(B30) insulin [insulin-detemir]	9.107	up to 24 hours									
exendin-4-CO—(CH2)15—SO3^−			still low	28 ± 2	70 ± 5	~24	32 ± 2	70+5 mg/dl	28 to 32		
insulin: Human (Zn^2+-free) insulin	7.312									2 ± 0.2	5 to 6
